Assay results: ChEMBL document CHEMBL5244207, “Phenanthrenes: A Promising Group of Plant Secondary Metabolites” (J Nat Prod, 2018)
In brackets after ≈: the same amount, converted by molar mass.

How the values were obtained:
BV-2 [1] = assay: Antiinflammatory activity in mouse BV2 cells assessed as reduction in LPS-induced nitric oxide production; format: functional, cell-based
Staphylococcus aureus [2] = assay: Antibacterial activity against Staphylococcus aureus ATCC 25923 assessed as inhibition of bacterial growth; format: functional, organism-based
Staphylococcus aureus [3] = assay: Antibacterial activity against Staphylococcus aureus ATCC 29213 assessed as inhibition of bacterial growth; format: functional, organism-based
Staphylococcus aureus [4] = assay: Antibacterial activity against Staphylococcus aureus ATCC 43300 assessed as inhibition of bacterial growth; format: functional, organism-based
[5] = Antioxidant activity assessed as DPPH radical scavenging activity; format: functional
RAW264.7 [6] = assay: Antiinflammatory activity in mouse RAW 264.7 cells assessed as inhibition of LPS-induced nitric oxide production measured after 48 hrs by Griess reagent assay; format: functional, cell-based; details: RAW264.7, 48 h
Mus musculus [7] = assay: Anxiolytic activity in mouse assessed as increase in time spent in open arm at 5 mg/kg, po measured after 60 mins by elevated plus maze test; format: functional; details: 1 h
Mus musculus [8] = assay: Anxiolytic activity in mouse assessed as number of entries in open arm at 5 mg/kg, po measured after 60 mins by elevated plus maze test; format: functional; details: 1 h
Pichia kudriavzevii = assay: Antifungal activity against Candida krusei assessed as inhibition of fungal growth measured after 48 hrs by CLSI based agar dilution method; format: functional, organism-based
[9] = Antioxidant activity assessed as hydrogen peroxide scavenging activity; format: functional
[10] = Inhibition of elastase (unknown origin); design: species or system Homo sapiens
RAW264.7 [11] = assay: Antiinflammatory activity in mouse RAW264.7 cells assessed as reduction in LPS-induced nitric oxide production; format: functional, cell-based; details: Mus musculus, RAW264.7
[12] = molecular target: Cyclin-dependent kinase 1/cyclin B (Homo sapiens, UniProt P06493); assay: Inhibition of CDK1/Cyclin B (unknown origin) in presence of ATP by scintillation counter analysis; format: protein-complex assay
SK-OV-3 = assay: Cytotoxicity against human SK-OV-3 cells assessed as reduction in cell viability; format: functional, cell-based
SGC-7901 = assay: Cytotoxicity against human SGC-7901 cells assessed as reduction in cell viability; format: functional, cell-based
Bel-7402 = assay: Cytotoxicity against human Bel-7402 cells assessed as reduction in cell viability; format: functional, cell-based
HL-60 [13] = assay: Cytotoxicity against human HL-60 cells assessed as reduction in cell viability by MTT assay; format: functional, cell-based
[14] = Antioxidant activity assessed as ABTS radical scavenging activity; format: functional
K562 = assay: Cytotoxicity against human K562 cells assessed as reduction in cell viability; format: functional, cell-based
HL-60 [15] = assay: Cytotoxicity against human HL-60 cells assessed as reduction in cell viability; format: functional, cell-based
A549 = assay: Cytotoxicity against human A549 cells assessed as reduction in cell viability; format: functional, cell-based
BV-2 [16] = assay: Antiinflammatory activity in mouse BV2 cells assessed as reduction in LPS-induced nitric oxide production at 10 uM relative to control; format: functional; design: scale not given: the % may be the effect or the level left

OC[C@H]1O[C@@H](O[C@H]2[C@H](O)[C@@H](O)[C@H](Oc3ccc4ccc5ccc(O)cc5c4c3O)O[C@@H]2CO)[C@H](O)[C@@H](O)[C@@H]1O
IC50 (BV-2 [1]): 15.3 µg/mL (≈ 27.8 µM)

COc1cc(O)c(-c2c(O)cc(OC)c3c2ccc2cc(O)ccc23)c2c1-c1ccc(O)cc1CC2 [CIRRHOPETALANTHRIN]
IC50 (Staphylococcus aureus [2]): 25 µg/mL (≈ 52 µM)
IC50 (Staphylococcus aureus [3]): 25 µg/mL (≈ 52 µM)
IC50 (Staphylococcus aureus [4]): 25 µg/mL (≈ 52 µM)

COc1cc(O)c2c(ccc3cc(O)ccc32)c1-c1c(OC)cc(O)c2c1ccc1cc(O)ccc12
IC50 [5]: 9.4 µg/mL

C=Cc1c(C)c(O)cc2c1-c1ccc(O)c(C)c1CC2
IC50 (RAW264.7 [6]): 3.1 µM
Time (Mus musculus [7]): 58.8 s
Activity (Mus musculus [8]): 6.6

OC(Cn1cncn1)(Cn1cncn1)c1ccc(F)cc1F [FLUCONAZOLE]
IC50 (Pichia kudriavzevii): 32 µg/mL (≈ 104 µM)

COc1cc2c(c(OC)c1O)-c1ccc(O)cc1CC2 [FLAVANTHRIDIN]
IC50 [9]: 2 µM

C=Cc1c(C)c(O)cc2c1CCc1c-2ccc(O)c1C
IC50 (RAW264.7 [6]): 4.9 µM
IC50 [10]: 5.5 µM

COc1ccc2ccc3ccc(O[C@@H]4O[C@H](CO)[C@@H](O)[C@H](O)[C@H]4O)c(O)c3c2c1
IC50 (BV-2 [1]): 10.6 µg/mL (≈ 26.3 µM)
IC50 ([5]; read-out: IC50): 0.2 µM

COc1c(O)cc2c3c1COc1cc(O)c(Cc4ccc(O)cc4)c(c1-3)CC2
IC50 (RAW264.7 [11]): 20.8 µM

COc1cc(O)c2c(c1-c1c(OC)cc(O)c3c1CCc1cc(O)ccc1-3)CCc1cc(O)ccc1-2
EC50 [5]: 7.7 µM

COc1cc2c(c(O)c1OC)CCc1cc(O)c(OC)c(OC)c1-2
IC50 [12]: 0.07 µM

COc1cc(O)c2c(c1)CCc1cc(O)c(-c3c(OC)cc(O)c4c3CCc3c-4ccc(O)c3-c3c(OC)cc(O)c4c3CCc3cc(O)ccc3-4)cc1-2
IC50 (SK-OV-3): 41.5 µg/mL (≈ 57.4 µM)
IC50 [5]: 4.8 µg/mL

COc1cc(O)c2c(c1)CCc1cc(O)c(-c3c(OC)cc(O)c4c3CCc3cc(O)ccc3-4)cc1-2
EC50 [5]: 26.7 µM

COC1=CC(=O)C2=C(CCc3cccc(O)c32)C1=O [EPHEMERANTHOQUINONE B]
IC50 (SGC-7901; Homo sapiens, SGC-7901, read-out: IC50): 2.9 µg/mL
IC50 (Bel-7402): 1.8 µg/mL (≈ 7.02 µM)
IC50 (HL-60 [13]): 3 µM

COc1cc(O)c2c(c1)CCc1cc(O)c(-c3c(/C=C/c4cccc(O)c4)cc(O)cc3OC)cc1-2
EC50 [5]: 47.3 µM

C=Cc1c(C)c(O)c(-c2c(O)c(C)c(C=C)c3c2ccc2c(C)c(O)ccc23)c2ccc3c(C)c(O)ccc3c12
Activity [14]: 85.2%

COc1cc(O)c2c(c1)CCc1cc(O)cc(O)c1-2
IC50 ([5]; read-out: IC50): 10.2 µM

O=c1c(O)c(-c2ccc(O)c(O)c2)oc2cc(O)cc(O)c12 [QUERCETIN]
IC50 (RAW264.7 [11]): 6.6 µM

COc1cc(O)c(-c2cc3c(cc2O)CCc2cc(OC)cc(O)c2-3)c(CCc2cccc(O)c2)c1
EC50 [5]: 55.9 µM

O=c1cc(N2CCOCC2)oc2c(-c3ccccc3)cccc12 [LY-294002]
IC50 [10]: 4.8 µM

Cc1c(O)ccc2c1CCc1cc(O)cc(CO)c1-2
IC50 (RAW264.7 [11]): 16 µM

COc1cc2cc(O)cc(OC)c2c2c(O)cccc12
IC50 (RAW264.7 [11]): 24.1 µM
IC50 ([5]; read-out: IC50): 6.8 µM
IC50 [9]: 19 µM

COc1cc(O)c2c(c1)CCc1cc(-c3c(OC)cc(O)c4c3CCc3cc(O)ccc3-4)c(O)cc1-2
IC50 (K562): 2.8 µM
IC50 (HL-60 [15]; hl-60): 4 µM
IC50 (A549): 1.2 µM
IC50 (SGC-7901; sgc-7901): 6.1 µM

COC1=C(OC)C(=O)c2c(ccc3cccc(O)c23)C1=O
IC50 (HL-60 [13]): 4.7 µM

C=Cc1cc(O)cc2c1-c1ccc(O)c(C)c1CC2 [EFFUSOL]
IC50 (RAW264.7 [11]): 15.1 µM
Time (Mus musculus [7]): 75.5 s
Activity (Mus musculus [8]): 7.8

Cc1c(O)cc2c3c1CCc1c(C)c(O)cc(c1-3)C2C
Activity (BV-2 [16]): 11.2%

COc1c(O)cc2c(c1OC)-c1ccc(O)cc1CC2 [ERIANTHRIDIN]
IC50 ([5]; read-out: IC50): 14.9 µM

COc1cc(O)c2c(c1-c1c(OC)cc(O)c3c1ccc1cc(O)ccc13)CCc1cc(O)ccc1-2
IC50 (HL-60 [15]; Homo sapiens, HL-60, read-out: IC50): 7.3 µg/mL
IC50 [5]: 15.1 µg/mL

C[C@@H]1O[C@@H](OC[C@H]2O[C@@H](Oc3c(-c4ccc(O)c(O)c4)oc4cc(O)cc(O)c4c3=O)[C@H](O)[C@@H](O)[C@@H]2O)[C@H](O)[C@H](O)[C@H]1O [RUTIN]
IC50 [5]: 2.5 µg/mL

Oc1ccc(/C=C/c2cc(O)cc(O)c2)cc1 [RESVERATROL]
EC50 [5]: 21.2 µM
IC50 ([5]; read-out: IC50): 28.7 µM
